Measurements taken from US6784201B2, “Benzothiepines having activity as inhibitors of ileal bile acid transport and taurocholate uptake” (G.D. Searle & Company, priority 1994, dated 2004).
Like-named read-outs stand apart in the source and are kept apart here.

Molecular target: T1, human IBAT (Homo sapiens, UniProt Q12908)
T1 construct: expressed in transfected cells; host or cells: Baby hamster kidney (BHK) cells, clone H14
T1 sequence (Q12908 1-348): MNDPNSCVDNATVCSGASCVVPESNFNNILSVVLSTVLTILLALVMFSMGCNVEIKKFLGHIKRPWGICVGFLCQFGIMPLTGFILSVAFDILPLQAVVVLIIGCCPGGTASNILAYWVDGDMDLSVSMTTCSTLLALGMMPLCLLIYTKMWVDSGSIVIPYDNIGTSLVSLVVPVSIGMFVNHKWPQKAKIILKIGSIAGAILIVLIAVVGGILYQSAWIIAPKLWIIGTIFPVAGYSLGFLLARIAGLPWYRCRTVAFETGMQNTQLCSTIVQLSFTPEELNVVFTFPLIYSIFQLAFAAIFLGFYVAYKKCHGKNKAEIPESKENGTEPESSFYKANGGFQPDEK
Assay: In vitro assay of IBAT-mediated uptake of [14C]-taurocholate (TC) in H14 cells
Assay type: cell-based
Conditions: for inhibition at 100 µM: read-out: In vitro % Inhibition of TC Uptake @ 100 uM
Outline: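 BHK cells stably expressing human IBAT (H14) were incubated 2 h at 37° C with compound and 3 μM final [14C]-taurocholate in DMEM (4.5 g/L glucose) plus 0.2% fatty acid-free BSA. After cold PBS washes, cell-associated radioactivity was measured by scintillation counting.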

Structure (SMILES)	IC50 (read-out: Human TC IC50) [µM]	further results
CCCCC1(CCCC)CS(=O)(=O)c2ccc(N(C)C)cc2[C@@H](c2ccc(OCc3cccc(CN(CC(=O)O)CC(=O)O)n3)cc2)[C@H]1O [Example 1431, (4R-cis)-N-(Carboxymethyl)-N-[[6-[[4-[3,3-dibutyl-7-(dimethylamino)-2,3,4,5-tetrahydro-4-hydroxy-1,1-dioxido-1-benzothiepin-5-yl]phenoxy]methyl]-2-pyridinyl]methyl]glycine]	–	IC50 (In Vitro Taurocholate Uptake, Table 10, read-out: Human TC IC50): 0.005 µM
CCCC[C@]1(CC)CS(=O)(=O)c2ccccc2[C@@H]2O[C@@H]21 [Example 19a, (1aα,2α,8bα) 2-Butyl-2-ethyl-1a,2,3,8b-tetrahydro-benzothiepino[4,5-b]oxirene-4,4-dioxide]	–	inhibition at 100 µM (100 uM): 0%
CCCCC1(CCCC)CS(=O)(=O)c2ccc(N(C)C)cc2C(c2cccc(OCCOCCOCC[P+](c3ccccc3)(c3ccccc3)c3ccccc3)c2)C1O (stereo not shown) [Example 1292]	0.025	–
CC[C@@H]1CS(=O)(=O)c2ccccc2[C@@H](c2ccccc2)[C@H]1O [Example 14b, (3α,4β,5β) 3-Ethyl-4-hydroxy-5-phenyl-2,3,4,5-tetrahydrobenzothiepine-1,1-dioxide]	–	inhibition at 100 µM (100 uM): 18%
CCCCC1(CC)CS(=O)(=O)c2ccc(N(C)C)cc2C(c2cccc(OCCOCCOCCI)c2)C1O (stereo not shown) [Example 1126]	0.013	–
C=COCC[N+](CC)(CC)CCOCCOCCOc1cccc(C2c3cc(NC)ccc3S(=O)(=O)CC(CCCC)(CCCC)C2O)c1 (stereo not shown) [Example 1063]	0.004	–
CCCCC1(CC)CS(=O)(=O)c2ccc(NC(=O)OCc3ccccc3)cc2C(c2ccccc2)C1O (stereo not shown) [Example 118]	0.4	–
CCCCC1(CCCC)CS(=O)(=O)c2ccc(N(C)C)cc2C(c2cccc(OCCOCCOCC[n+]3cccc4ccc5ccccc5c43)c2)C1O (stereo not shown) [Example 1034]	0.002	–
CCCCC1(CC)CS(=O)(=O)c2ccc(-c3ccccc3)cc2C(c2cccc(OC)c2)C1O (stereo not shown) [Example 1174]	0.15	–
CCCCC1(CCCC)CS(=O)(=O)c2ccc(N(C)C)cc2C(c2cccc(OCCOCCOCC[n+]3ccc(C)c4ccccc43)c2)C1O (stereo not shown) [Example 1017]	0.002	–
CCCCCCCCC[N+](CCCCCCCCC)(CCCCCCCCC)CCOCCOCCOc1cccc(C2c3cc(N(C)C)ccc3S(=O)(=O)CC(CCCC)(CCCC)C2O)c1 (stereo not shown) [Example 1273]	0.029	–
CCCC[C@]1(CC)CS(=O)(=O)c2ccc(N(C)C)cc2[C@@H](c2ccccc2)[C@H]1O [Example 104]	–	IC50 (Human TC IC50): 0.0056 µM
CCCCC1(CCCC)CS(=O)(=O)c2ccc(N(C)C)cc2C(c2cccc(OCCOCCOCC[n+]3ccccn3)c2)C1O (stereo not shown) [Example 1008]	0.001	–
CCCCC1(CC)CS(=O)(=O)c2ccc(N(C)C=O)cc2C(c2ccccc2)C1O (stereo not shown) [Example 1214]	0.75	–
CCCCC1(CCCC)CS(=O)(=O)c2ccc(N(C)C)cc2C(c2cccc(OCCOCCOCC[n+]3ccc(-c4ccccc4)cc3)c2)C1O (stereo not shown) [Example 1119]	0.01	–
CCCCC1(CCCC)CS(=O)(=O)c2ccc(N(C)C)cc2C(c2ccc(OCCOCC[N+](CC)(CC)CC)c(F)c2)C1O (stereo not shown) [Example 1044]	0.003	–
CCCCC1(CCCC)CS(=O)(=O)c2ccc(N(C)C)cc2C(c2cccc(OCCOCCOCC[n+]3ccc(C(=O)O)cc3)c2)C1O (stereo not shown) [Example 1028]	0.002	–
O=S1(=O)CC2(CCCCC2)[C@@H](O)[C@H](c2ccccc2)c2ccccc21 (relative stereo) [Example 59, trans-4-Hydroxy-5-phenyl-2,3,4,5-tetrahydro spiro(benzothiepine-3,1′-cyclohexane)-1,1-dioxide]	–	IC50 (H14 cells, Table 5, read-out: IC50 uM (In vitro Taurocholate Cell Uptake)): 70 µM
CCCC[C@]1(CC)CS(=O)(=O)c2ccccc2[C@H](c2ccccc2)[C@H]1O [Example 6b, (3α,4β,5α) 3-Butyl-3-ethyl-4-hydroxy-5-phenyl-2,3,4,5-tetrahydro-benzothiepine-1,1-dioxide]	–	inhibition at 100 µM (100 uM): 85%
CCCCC1(CC)CS(=O)(=O)c2ccc(N(C)C)cc2C(c2ccccc2)C1O (single isomer, unassigned) [Example 1300]	–	IC50 (Human TC IC50): 1 µM
CCCCC1(CCCC)CS(=O)(=O)c2ccc(N(C)C)cc2C(c2cccc(OCCOCCOCC[n+]3ccccc3-c3ccccc3)c2)C1O (stereo not shown) [Example 1369]	0.005	–
CCCCC1(CCCC)CS(=O)(=O)c2ccc(N(C)C)cc2C(c2cccc(OCCOCCOCC[n+]3ccccc3)c2)C1O (stereo not shown) [Example 1355]	0.0015	–
CCC1C=C(c2ccccc2)c2ccccc2SC1 (stereo not shown) [Example 12, 3-Ethyl-5-phenyl-2,3-dihydrobenzothiepine]	–	inhibition at 100 µM: 25%
CCCCC1(CCCC)CS(=O)(=O)c2ccc(N(C)C)cc2C(c2cccc(OCCOCCOCC[N+](CC)(CC)CCC(C)=O)c2)C1O (stereo not shown) [Example 1293]	0.019	–
CCCCC1(CCCC)CS(=O)(=O)c2ccc(N(C)C)cc2C(c2cccc(OCCOCCOCC[n+]3ccccc3C)c2)C1O (stereo not shown) [Example 1083]	0.005	–
CCCCC1(CCCC)CS(=O)(=O)c2ccc(N(C)C)cc2C(c2cccc(OCCOCCOCC[N+](CCOCCOC)(CCOCCOC)CCOCCOC)c2)C1O (stereo not shown) [Example 1065]	0.004	–

Now from value to compound, other results behind:

IC50 (read-out: Human TC IC50) [µM]	Structure (SMILES)	further results
0.8	CCCCC1(CC)CS(=O)(=O)c2ccc(NC(=O)CBr)cc2C(c2ccccc2)C1O (stereo not shown) [Example 106]	–
0.017	CCCCC1(CCCC)CS(=O)(=O)c2ccc(N(C)C)cc2C(c2ccc3cc(O)ccc3c2)C1O (stereo not shown) [Example 1247]	–
0.093	CCCCC1(CCCC)CS(=O)(=O)c2ccc(OC)cc2C(c2ccncc2)C1O (stereo not shown) [Example 1164]	–
1.07	CCCCC1(CC)CS(=O)(=O)c2ccc(N)cc2C(c2ccccc2)C1O (single isomer, unassigned) [Example 122]	–
0.021	CCCCC1(CCCC)CS(=O)(=O)c2ccc(N(C)C)cc2C(c2ccc(OC)c(OC)c2)C1O (stereo not shown) [Example 1135]	–
0.5	CCCCC1(CC)CS(=O)(=O)c2ccc(SC)cc2C(c2cccc(OC)c2)C1O (single isomer, unassigned) [Example 142]	–
0.19	CCCCC1(CCCC)CS(=O)(=O)c2c(cccc2S(C)(=O)=O)C(c2ccc(OC)cc2)C1O (stereo not shown) [Example 1218]	–
0.07	CCCCC1(CC)CS(=O)(=O)c2ccc(Br)cc2C(c2cccc(OC)c2)C1O (single isomer, unassigned) [Example 271]	–
0.003	CCCCC1(CCCC)CS(=O)(=O)c2ccc(N(C)C)cc2C(c2cccc(N)c2)C1O (stereo not shown) [Example 1046]	–
0.11	CCCCC1(CCCC)CS(=O)(=O)c2ccc([N+](C)(C)C)cc2C(c2cccc(O)c2)C1O (stereo not shown) [Example 1166]	–
0.0015	CCCCC1(CCCC)CS(=O)(=O)c2c(OC)cc(N(C)C)cc2C(c2ccc(O)cc2)C1O (stereo not shown) [Example 1012]	–
0.008	CCCCC1(CCCC)CS(=O)(=O)c2ccc(N(C)C)cc2C(c2ccncc2)C1O (stereo not shown) [Example 1112]	–
0.005	CCCCC1(CCCC)CS(=O)(=O)c2ccc(N(C)C)cc2C(c2ccccn2)C1O (stereo not shown) [Example 1082]	–
0.034	CCCCC1(CCCC)CS(=O)(=O)c2ccc(N(C)C)cc2C(c2ccc(OCCOCCOCCI)cc2)C1O (stereo not shown) [Example 1205]	–
0.12	C=CCOc1ccc(C2c3cc(N(C)C)ccc3S(=O)(=O)CC(CCCC)(CCCC)C2O)cc1Cl (stereo not shown) [Example 1167]	–
0.041	CCCCC1(CCCC)CS(=O)(=O)c2ccc(N(C)C)cc2C(c2ccc(C(=O)OC)cc2)C1O (stereo not shown) [Example 1221]	–

IC50 (read-out: Human TC IC50) [µM]	Structure (SMILES)	further results
0.55	CCCCC1(CCCC)CS(=O)(=O)c2ccc(Br)cc2C(c2ccccc2Br)C1O (stereo not shown) [Example 1190]	–
0.036	CCCCC1(CCCC)CS(=O)(=O)c2ccc(N(C)COCC)cc2C(c2ccccc2)C1O (stereo not shown) [Example 1152]	–
0.067	CCCCC1(CCCC)CS(=O)(=O)c2ccc(N(C)C)cc2C(c2cccc(C[N+](C)(C)C)c2)C1O (stereo not shown) [Example 1234]	–
0.22	CCCCN(C)c1ccc2c(c1)C(c1ccc(F)cc1)C(O)C(CCCC)(CCCC)CS2(=O)=O (stereo not shown) [Example 1181]	–
0.09	CCCCC1(CCCC)CS(=O)(=O)c2ccc(OC)cc2C(c2cccc(N(C)C)c2)C1O (stereo not shown) [Example 1163]	–
0.0075	CCCCC1(CCCC)CS(=O)(=O)c2ccc(N(C)C)cc2C(c2cccc(C[n+]3ccccc3)c2)C1O (stereo not shown) [Example 1107]	–
0.09	CCCCC1(CC)CS(=O)(=O)c2ccc(NC(C)=O)cc2C(c2ccccc2)C1O (stereo not shown) [Example 110]	–
0.0026	CCCCC1(CCCC)CS(=O)(=O)c2ccc(N(C)C)cc2C(c2ccccc2)C1O (stereo not shown) [Example 1039]	–
0.0025	CCCCC1(CCCC)CS(=O)(=O)c2ccc(N(C)C)cc2C(c2cccc(OCC[N+](C)(C)C)c2)C1O (stereo not shown) [Example 1038]	–
0.12	CCCCC1(CCCC)CS(=O)(=O)c2c(NC(C)(C)C)cccc2C(c2ccc(F)cc2)C1O (stereo not shown) [Example 1258]	–
0.045	CCCCC1(CCCC)CS(=O)(=O)c2ccc(N(C)C)cc2C(c2cccc(OCCN(CC)CC)c2)C1O (stereo not shown) [Example 1235]	–
0.18	CCCCC1(CCCC)CS(=O)(=O)c2c(F)cccc2C(c2ccc(F)cc2)C1O (stereo not shown) [Example 1176]	–
0.23	CCCCC1(CC)CS(=O)(=O)c2ccc(F)cc2C(c2cccc(OC)c2)C1O (stereo not shown) [Example 276]	–
0.023	CCCCC1(CCCC)CS(=O)(=O)c2ccc(NN(C)C)cc2C(c2cccc(OC)c2)C1O (stereo not shown) [Example 1140]	–
0.029	CCCCC1(CCCC)CS(=O)(=O)c2ccc(N(CC)CC)cc2C(c2cccc(OC)c2)C1O (stereo not shown) [Example 1147]	–
0.34	CCCCC1(CCCC)CS(=O)(=O)c2ccc(N(C)C)cc2C(c2ccc(OCCN(C)C)cc2)C1O (stereo not shown) [Example 1219]	–
